Reference: US20140221282A1, “LONG DURATION DUAL HORMONE CONJUGATES” (priority 2011, published 2014)
Ends that are not written are not given here. Y‑shaped‑mPEG40KD = Y-shaped methoxy-PEG of 40 kDa attached to the Lys side chain; mPEG40KD = methoxy-PEG of 40 kDa

How the values were obtained:
[1] = Body weight change in lean rats; format: in vivo; settings: for body weight reduction: SC 125 nmol/kg (FIG. 17)
Protocol: Lean rats were administered a subcutaneous (SC) once weekly injection of test compound (125 nmol/kg) or vehicle. FIGS. 13A-13B provide the result of a multi-day food intake assays. The effect on 24-hour food intake was investigated for Cmpds 69, 73, 72, 70, and 74, using vehicle as control. […] In the case of some of the compounds, weight loss was still evident even after one week.
The effect on 24-hour food intake, as judged with SC injection (125 nmol/kg), was investigated for Cmpds 74, 76, 77 and 78.
Test animals (lean rats) were injected SC at 125 nmol/kg, and body weight corrected for vehicle (FIG. 19A) and cumulative food intake (FIG. 19B) were determined for 7-days. As shown in FIGS. 19A-19B, most compounds in the tested series provided weight loss which was still evident after 7-days.

Food intake in lean rats = format: in vivo; settings: for food intake: SC once weekly injection 125 nmol/kg
Protocol: A variety of food intake assays are available to one of skill in the art. For example, in the so-called “home cage model” of food intake, subjects (e.g., rats) are maintained in their home cage, and food intake along with total weight of the subject is measured following injection of test compound. In the so-called “feeding patterns model” of food intake assay, subjects (e.g., rats) are habituated to a feeding chamber and to injections prior to testing. After test compound administration, the subjects are immediately placed into the feeding chamber, and food intake is automatically determined as a function of time (e.g., 1-min intervals). For both tests, the food is standard chow or any of a variety of chows (e.g., high fat) known in the art. In the so-called “mouse food intake” assay, a test compound may be tested for appetite suppression, or for an effect on body weight gain in diet-induced obesity (DIO) mice. In a typical mouse food intake assay, female NIH/Swiss mice (8-24 weeks old) are group housed with a 12:12 hour light:dark cycle with lights on at 0600. Water and a standard pelleted mouse chow diet are available ad libitum, except as noted. Animals are fasted starting at approximately 1500 hrs, I day prior to experiment. The morning of the experiment, animals are divided into experimental groups. In a typical study, n=4 cages with 3 mice/cage. At time=0 min, all animals are given an intraperitoneal injection of vehicle or compound, typically in an amount ranging from about 10 nmol/kg to 75 nmol/kg, and immediately given a pre-weighed amount (10-15 g) of the standard chow. Food is removed and weighed at various times, typically 30, 60, and 120 minutes, to determine the amount of food consumed. See e.g., Morley et al., 1994, Am. J. Physiol. 267:R178-R184). Food intake is calculated by subtracting the weight of the food remaining at the e.g. 30, 60, 120, 180 and/or 240 minute time point, from the weight of the food provided initially at time=0. Significant treatment effects are identified by ANOVA (p<0.05). Where a significant difference exists, test means are compared to the control mean using Dunnett's test (Prism v. 2.01, GraphPad Software Inc., San Diego, Calif.). For any test described herein, administration of test compound can be by any means, including injection (e.g., subcutaneous, intraperitoneal, and the like), oral, or other methods of administration known in the art.
FIGS. 13A-13B provide the result of a multi-day food intake assays. The effect on 24-hour food intake was investigated for Cmpds 69, 73, 72, 70, and 74, using vehicle as control. […] In the case of some of the compounds, weight loss was still evident even after one week. […]
As shown in FIGS. 19A-19B, most compounds in the tested series provided weight loss which was still evident after 7-days.

amylin receptor = assay: Amylin receptor binding assay, rat nucleus accumbens membranes; settings: 125I-rat amylin displacement
Source text: Dried glass fiber plates were combined with scintillant and counted on a multi-well Perkin Elmer scintillation counter, as well known in the art.

[2] = Body weight change in diet induced obese (DIO) rats; format: in vivo, DIO Sprague Dawley rats; settings: SC once a week 125 nmol/kg, four weeks
Protocol: The effect of Cmpd 14 on body weight was examined in male outbred diet-induced obese Sprague Dawley rats. Percent vehicle-corrected change in body weight was measured relative to PEGylated parent peptides alone and in combination. […]
Specifically, in this experiment the duration of action on food intake and change in body weight was compared for compounds having a single active peptide element (Cmpd 6 and Cmpd 7) relative to the combined dosing of these compounds, and further relative to LDDHC Cmpd 14, having the active peptide elements of Cmpds 6-7 separated by a 40 kDa PEG water-soluble polymeric spacer. […] In the combination dosing, each of Cmpd 6 and Cmpd 7 was administered at 32 nmol/kg. The test subjects were DIO rats (n=6/group, body weight baseline=478 g). […]
Plasma drug levels were determined by ELISA assay.
[…] The baseline body weight was 505 gm.

[3] = Body weight change in lean rats; format: in vivo; settings: for body weight reduction: Cmpd 77 31.25-250 nmol/kg, Cmpd 79 250 nmol/kg (FIG. 18)
[4] = SC once weekly injection 125 nmol/kg
[5] = Cmpd 77 31.25-250 nmol/kg, Cmpd 79 250 nmol/kg (FIG. 18)

IC50 (amylin receptor)	Compound	body weight [1, 4]	food intake (Food intake in lean rats)	also measured
	[K^31(mPEG40KD)]-Cmpd 61 (CNTATCATQRLANFLVHSSNNFGPILPPTK(mPEG40KD)VGSNTY-NH2; cysteine pairing not given here) [Cmpd 78]			body weight reduction [1]: at least as efficacious as Cmpd 74; food intake reduction (Food intake in lean rats; SC 125 nmol/kg (FIG. 17)): at least as efficacious as Cmpd 74
	[K^26(mPEG40KD)]-Cmpd 54 (CNTATCATQRLANFLVRSSNNLGPK(mPEG40KD)LPPTNVGSNTY-NH2; cysteine pairing not given here) [Cmpd 72]	efficacious	efficacious	
470 nM	[K^26(Y-shaped-mPEG40KD)]-Cmpd 53 (KCNTATCATQRLANFLVRSSNNLGPK(Y‑shaped‑mPEG40KD)LPPTNVGSNTY-NH2; cysteine pairing not given here) [Cmpd 75]			body weight ([1]; single SC dose, y-branched vs linear PEG): not as efficacious as the linear pegylated version, Cmpd 71
66 nM	[K^26(mPEG40KD)]-Cmpd 53 (KCNTATCATQRLANFLVRSSNNLGPK(mPEG40KD)LPPTNVGSNTY-NH2; cysteine pairing not given here) [Cmpd 71]			food intake, dose response (Food intake in lean rats; 12-250 nmol/kg): reduced body weight and food intake in a dose dependent fashion; weight loss [2]: not as efficacious as infused Cmpd 49; body weight, dose response ([3]; 12-250 nmol/kg): reduced body weight and food intake in a dose dependent fashion
	[K^21(mPEG40KD)]-Cmpd 51 (KCNTATCATQRLANFLVRSSK(mPEG 40 kDa)NLGPVLPPTNVGSNTY-NH2; cysteine pairing not given here) [Cmpd 69]	efficacious	efficacious	
78 nM	mPEG40KD-Cmpd 50 (CNTATCATQRLANFLVRSSNNLGPVLPPTNVGSNTY-NH2; cysteine pairing not given here; also: mPEG40KD attached, site not given here) [Cmpd 68]			
	[K^31(mPEG40KD)]-Cmpd 56 (CNTATCATQRLANFLVRSSNNLGPVLPPTK(mPEG40KD)VGSNTY-NH2; cysteine pairing not given here) [Cmpd 74]	efficacious	efficacious	
0.42 nM	CNTATCATQRLANFLVRSSNNLGPVLPPTNVGSNTY [Cmpd 50, [des-Lys^1]-Cmpd 49]			
	[K^31(mPEG40KD)]-Cmpd 55 (KCNTATCATQRLANFLVRSSNNLGPVLPPTK(mPEG40KD)VGSNTY-NH2; cysteine pairing not given here) [Cmpd 73]	efficacious	efficacious	
	[K^26(mPEG40KD)]-Cmpd 60 (CNTATCATQRLANFLVHSSNNFGPK(mPEG40KD)LPPTNVGSNTY-NH2; cysteine pairing not given here) [Cmpd 77]			body weight reduction [1]: at least as efficacious as Cmpd 74; food intake reduction (Food intake in lean rats; [5]): dose dependent efficacy; food intake reduction (Food intake in lean rats; SC 125 nmol/kg (FIG. 17)): at least as efficacious as Cmpd 74; body weight reduction [3]: dose dependent efficacy
	[K^21(mPEG40KD)]-Cmpd 59 (CNTATCATQRLANFLVHSSK(mPEG 40 kDa)NFGPILPPTNVGSNTY-NH2; cysteine pairing not given here) [Cmpd 76]			body weight reduction [1]: at least as efficacious as Cmpd 74; food intake reduction (Food intake in lean rats; SC 125 nmol/kg (FIG. 17)): at least as efficacious as Cmpd 74
	[K^21(mPEG40KD)]-Cmpd 52 (CNTATCATQRLANFLVRSSK(mPEG 40 kDa)NLGPVLPPTNVGSNTY-NH2; cysteine pairing not given here) [Cmpd 70]	efficacious	efficacious	
	[K^26(Y-shaped-mPEG40KD)]-Cmpd 60 (CNTATCATQRLANFLVHSSNNFGPK(Y‑shaped‑mPEG40KD)LPPTNVGSNTY-NH2; cysteine pairing not given here) [Cmpd 79]			food intake reduction (Food intake in lean rats; [5]): not as efficacious as the linear pegylated version, Cmpd 77; body weight reduction [3]: not as efficacious as the linear pegylated version, Cmpd 77

Compound	IC50 (amylin receptor)	body weight [1, 4]	food intake (Food intake in lean rats)	also measured
CC(C)C[C@H](NC(=O)[C@H](CC(N)=O)NC(=O)[C@H](CC(N)=O)NC(=O)[C@H](CO)NC(=O)[C@H](CO)NC(=O)[C@H](CCCNC(=N)N)NC(=O)[C@@H](NC(=O)[C@H](CC(C)C)NC(=O)[C@H](Cc1ccccc1)NC(=O)[C@H](CC(N)=O)NC(=O)[C@H](C)NC(=O)[C@H](CC(C)C)NC(=O)[C@H](CCCNC(=N)N)NC(=O)[C@H](CCC(N)=O)NC(=O)[C@@H](NC(=O)[C@H](C)NC(=O)[C@@H]1CSSC[C@H](NC(=O)[C@@H](N)CCCCN)C(=O)N[C@@H](CC(N)=O)C(=O)N[C@@H]([C@@H](C)O)C(=O)N[C@@H](C)C(=O)N[C@@H]([C@@H](C)O)C(=O)N1)[C@@H](C)O)C(C)C)C(=O)NCC(=O)N1CCC[C@H]1C(=O)N[C@H](C(=O)N[C@@H](CC(C)C)C(=O)N1CCC[C@H]1C(=O)N1CCC[C@H]1C(=O)N[C@H](C(=O)N[C@@H](CC(N)=O)C(=O)N[C@H](C(=O)NCC(=O)N[C@@H](CO)C(=O)N[C@@H](CC(N)=O)C(=O)N[C@H](C(=O)N[C@@H](Cc1ccc(O)cc1)C(N)=O)[C@@H](C)O)C(C)C)[C@@H](C)O)C(C)C [Cmpd 49, reference compound]	0.1 nM			
